pIC50: −log10 of the molar value.
Assay: enzyme-inhibition screening assay: The 16 compounds showing substantial inhibition against TcGlcK at compound concentrations of 20 μM were then examined in a confirmatory assay in which the amino sugar analogues were at a concentration of 20 μM and were tested against the assay's only coupling enzyme, G6PDH, to verify enzyme activity; the assay was performed in quadruplicate. […] These confirmed hits included representatives from all three monosaccharide scaffolds tested (i.e., D-GlcN, D-ManN, and D-GalN).

In the case of O=C(N[C@H]1C(O)O[C@H](CO)[C@@H](O)[C@@H]1O)c1ccccc1 (stereo partly specified), the pIC50 was 4.79.

From ChEMBL document CHEMBL5728660, “Monosaccharide amine and 3-nitro-2-phenyl-2H-chromene based inhibitors of glucose kinases” (2021)
